Measured values reported in article PMC6150172, “Synthesis of Oxadiazole-Thiadiazole Hybrids and Their Anticandidal Activity” (Molecules : A Journal of Synthetic Chemistry and Natural …, 2017).
In brackets after ≈: the same amount, converted by molar mass.

Tests used:
C. krusei (ATCC 6258) = assay: Antifungal broth microdilution assay (EUCAST EDef 7.1), C. krusei; format: cell-based; details: Pichia kudriavzevii, ATCC6258, read-out: Minimum inhibitory concentration (MIC50)
Protocol: (§1) The anticandidal effect of compounds 6a–6s were screened in accord with the EUCAST definitive (EDef 7.1) method. Ketoconazole was employed as a reference drug. The in vitro growth inhibitory activity of the compounds were tested against C. albicans (ATCC 24433), C. glabrata (ATCC 90030), C. krusei (ATCC 6258) and C. parapsilosis (ATCC 22019). The results were obtained as MIC values and MIC readings were accomplished twice for each chemical agent. After incubating overnight at 37 °C, the fungal strains were sustained in Roswell Park Memorial Institute (RPMI) medium.
(§2) Adjustment of the inoculum density to a 0.5 McFarland turbidity standard was carried out by using a spectrophotometer. The resulting inoculum suspension contained 0.5 × 10^5–2.5 × 10^5 cfu/mL for fungi. The two-fold serial dilutions technique were applied and the test was carried out in Mueller–Hinton broth and RPMI at pH7 and the test was performed for medium at pH7. The last well on the microplates containing only inoculated broth and the last well with no growth of microorganism represent controls and the MIC50 in μg/mL, respectively. DMSO was used as solvent. Further dilutions of the compounds and standard drugs in the RPMI medium were prepared in the required quantities at contcentrations of 800, 400, 200, 100, 50, 25, 12.5, 6.25, 3.125, 1.5625 and 0.78 µg/mL. After a 24 h incubation of the completed plates, resazurin (20 µg/mL) was added into each well in order to observe the fungal growth. […] Each experiment in antifungal assay was performed twice.

[1] = test system: ergosterol biosynthesis in C. krusei; assay: Ergosterol level quantification by LC-MS-MS in C. krusei; format: cell-based; details: Pichia kudriavzevii, mean ± SD
Protocol: The ergosterol level was determined using the method described by Breivik and Owades with adjustments according to [2]. C. krusei was inoculated with Sabouraud dextrose broth (Difco) supplemented with compounds 6e, 6k, 6r and the positive control, ketoconazole. The cultures were incubated, and the stationary-phase cells were harvested. After the addition of 25% alcoholic potassium hydroxide solution, cell suspensions were separated and incubated. Sterols were extracted by sterile distilled water and chloroform, and then the extract was injected into the LC-MS-MS system (Shimadzu LCMS 8040, Kyoto, Japan). The ergosterol quantity in the negative control samples was considered as 100%. All concentrations were analysed in quadruplicate, and the results were presented as mean ± standard deviation (SD).

C. albicans (ATCC 24433) = assay: Antifungal broth microdilution assay (EUCAST EDef 7.1), C. albicans; format: cell-based; details: Candida albicans, ATCC24433, read-out: Minimum inhibitory concentration (MIC50)
Protocol: as §1, §2

[2] = test system: C. parapsilosis (ATCC 22019); assay: Antifungal broth microdilution assay (EUCAST EDef 7.1), C. parapsilosis; format: cell-based; details: Lodderomyces parapsilosis, ATCC22019; C. parapsilopsis; read-out: Minimum inhibitory concentration (MIC50)
Protocol: as §1, §2

C. glabrata (ATCC 90030) = assay: Antifungal broth microdilution assay (EUCAST EDef 7.1), C. glabrata; format: cell-based; details: Nakaseomyces glabratus, ATCC90030, read-out: Minimum inhibitory concentration (MIC50)
Protocol: as §1, §2

four Candida species = assay: Antifungal broth microdilution assay, four Candida species taken together; format: cell-based; details: range over four Candida strains
Protocol: as §1, §2

MTT cytotoxicity test = format: cell-based; details: mouse, NIH/3T3 mouse embryonic fibroblast cells, NIH/3T3 cell line, read-out: IC50 (cytotoxic activity)
Protocol: The MTT assay was carried out to determine the cytotoxicity of the synthesized compounds as previously reported in [21]. NIH/3T3 mouse embryonic fibroblast cells (ATCC® CRL-1658™, London, UK) were incubated according to the supplier’s references and seeded at 1 × 10^4 cells into each well of 96-well plates. After this process, cells were treated with the compounds at concentrations ranging from 800 µg/mL to 0.78 µg/mL. By means of the following formula, percent inhibition was evaluated for each concentration.

## O=C(CSc1nnc(CCSc2nnc(NC3CCCCC3)s2)o1)c1ccc([N+](=O)[O-])cc1 [Compound 6e, 2-[[5-[2-[[5-(Cyclohexylamino)-1,3,4-thiadiazol-2-yl]thio]ethyl]-1,3,4-oxadiazol-2-yl]thio]-1-(4-nitrophenyl)ethan-1-one]
C. krusei (ATCC 6258)
  MIC50: 0.78 µg/mL (≈ 1.54 µM)
[1]; 0.78 µg/mL
  inhibition at 0.78 µg/mL: 76.5 ± 3.67%
[1]; 1.56 µg/mL
  inhibition at 1.56 µg/mL: 82.9 ± 4.72%
[1]; 3.12 µg/mL
  inhibition at 3.12 µg/mL: 88.6 ± 4.52%
C. albicans (ATCC 24433)
  MIC50: 1.56 µg/mL (≈ 3.08 µM)
other
  melting point: 144 °C
[2]
  MIC50: 0.78 µg/mL (≈ 1.54 µM)
C. glabrata (ATCC 90030)
  MIC50: 1.56 µg/mL (≈ 3.08 µM)
Four Candida species
  minimum inhibitory concentration (MIC), range over all tested fungi: 0.78 to 3.12 µg/mL
MTT cytotoxicity test
  IC50: > 500 µg/mL
